Columns and labels:
[1] = Water activity of humectant solutions (AquaLab CX-2); format: physicochemical
Description: (§1) Water activity (aw) is a measure of the amount of free water available to a microorganism to support growth. Water activity expresses the active portion of the water content as opposed to the total moisture content, which includes “bound water.” The measurements were conducted using the AquaLab CX-2 by Decagon Devices, Inc. by utilizing the chilled mirror/dew point hygrometric methodology for determining water activity. The cellulose sponge was cut into a disk having a 1.5″ inch diameter and 1/16 inch thick.
A commercially available magnesium chloride hexahydrate (MgCl2.6H2O) (EMD Chemical Company, Gibbstown, N.J.), sodium chloride (NaCl) (Fisher Scientific Company, Fair Lawn, N.J.), potassium chloride (KCl) (EMD Chemical Company, Gibbstown, N.J.), and glycerol (EMD Chemical Company, Gibbstown, N.J.) was mixed to obtain a desired concentration. The solution was measured for water activity using the AquaLab CX-2 by Decagon Devices, Inc. The water activity for those solutions is presented in Table 7.

[2] = Water activity of humectants in cellulose sponges (AquaLab CX-2); format: physicochemical
Description: Water Activity (aw) in the Cellulose Sponges
as §1
A prepared cellulose sponge was soaked for 20 minutes in one of the MgCl2 or NaCl humectant solutions from Example 3. After soaking, the cellulose sponge was squeezed out between squeeze rolls and then immediately placed into airtight plastic bags. The samples were tested for water activity within 24 hours.

Row | Water Activity of humectant solution ([1]; solution concentration 8%) | Water Activity of humectant solution ([1]; solution concentration 10%) | Water Activity of humectant solution ([1]; solution concentration 12%) | Water Activity of humectant solution ([1]; solution concentration 14%) | Water Activity of humectant solution ([1]; solution concentration 16%) | Water Activity of humectant solution ([1]; solution concentration 18%) | Water Activity of humectant solution ([1]; solution concentration 20%) | Water Activity of humectant solution ([1]; solution concentration 50%) | Structure (SMILES) | Water Activity of humectant solution ([1]; solution concentration 22%) | Water Activity of humectant solution ([1]; solution concentration 24%) | Water Activity of humectant in cellulose sponge ([2]; 10 wt. % of input solution) | Water Activity of humectant in cellulose sponge ([2]; 12 wt. % of input solution) | Water Activity of humectant in cellulose sponge ([2]; 14 wt. % of input solution) | Water Activity of humectant in cellulose sponge ([2]; 16 wt. % of input solution)
1 | 0.975 | 0.971 | 0.966 | 0.962 | 0.955 | 0.950 | 0.944 | 0.811 | OCC(O)CO [Glycerol, glycerol] | 0.939 | 0.934 |  |  |  | 
2 | 0.944 | 0.926 | 0.904 | 0.876 | 0.847 | 0.841 | 0.768 |  | O.O.O.O.O.O.[Cl-].[Cl-].[Mg+2] [MgCl2, magnesium chloride hexahydrate (MgCl2.6H2O)] |  |  | 0.913 | 0.896 | 0.890 | 
3 | 0.973 | 0.960 | 0.957 |  | 0.943 |  | 0.925 |  | O=C([O-])[O-].[K+].[K+] [Formulation K2CO3] |  |  |  |  |  | 

Row | Structure (SMILES) | Water Activity of humectant solution ([1]; solution concentration 8%) | Water Activity of humectant solution ([1]; solution concentration 10%) | Water Activity of humectant solution ([1]; solution concentration 12%) | Water Activity of humectant solution ([1]; solution concentration 14%) | Water Activity of humectant solution ([1]; solution concentration 16%) | Water Activity of humectant solution ([1]; solution concentration 18%) | Water Activity of humectant solution ([1]; solution concentration 20%) | Water Activity of humectant solution ([1]; solution concentration 50%) | Water Activity of humectant solution ([1]; solution concentration 22%) | Water Activity of humectant solution ([1]; solution concentration 24%) | Water Activity of humectant in cellulose sponge ([2]; 10 wt. % of input solution) | Water Activity of humectant in cellulose sponge ([2]; 12 wt. % of input solution) | Water Activity of humectant in cellulose sponge ([2]; 14 wt. % of input solution) | Water Activity of humectant in cellulose sponge ([2]; 16 wt. % of input solution)
4 | [Cl-].[Na+] [NaCl, sodium chloride] | 0.949 | 0.936 | 0.919 |  | 0.887 |  | 0.842 |  |  |  | 0.926 | 0.921 | 0.900 | 0.881
5 | [Cl-].[K+] [KCl, potassium chloride] | 0.952 | 0.950 | 0.938 | 0.928 | 0.915 | 0.904 | 0.891 |  | 0.875 | 0.859 |  |  |  | 

Source: patent publication US8304454B2, “Antimicrobial cellulose sponge and method of making” (3M Innovative Properties Company, priority 2007, dated 2012)
